Experiments:
[1] = system: NK cells; assay: NKG2A and NKG2D surface expression on bone marrow NK cells of Daudi lymphoma bearing mice (Example 4); type: in vivo; conditions: bone marrow day 24; Conjugate 1 0.3 mg/kg SC days 14 and 21; antibody 0.5 mg/kg IP day 14
Experimental: (§1) Balb/c mice bearing Daudi B cell lymphoma tumors in the bone marrow (n=6/group) were intraperitoneally administered a single 0.5 mg/kg dose of the human CD38 protein targeting clinical antibody daratumumab (DARZALEX®, Janssen Biotech) or a nonspecific control antibody with a matching isotype on day 14 after Daudi cell intravenous inoculation. Additional groups were administered mono(methoxyPEG-N-butanamide)40 kD interleukin-15 (Conjugate 1) subcutaneously at a dose of 0.3 mg/kg as a single agent on days 14 and 21 after Daudi cell inoculation, or administered a combination treatment of Conjugate 1 administered subcutaneously at doses of 0.03 mg/kg or 0.3 mg/kg on days 14 and 21 after Daudi cell inoculation and daratumumab administered intraperitoneally at a dose of 0.5 mg/kg on day 14 after Daudi cell inoculation.
Three days following the second Conjugate 1 administration (day 24 after Daudi inoculation), bone marrow was collected and the NK cell fraction was measured by flow cytometry in total bone marrow. Expression of the cell surface activating receptor NKG2D and the inhibitory checkpoint receptor NKG2A are shown in FIGS. 7A and 7B, respectively.

[2] = system: HCT-116 cells; assay: ADCC of cetuximab-coated HCT-116 cells by primed human NK cells (Example 20); type: cell-based; conditions: NK cells primed with 300 ng/mL overnight; cetuximab 30 ug/mL; E:T 10:1, 3 hours
Experimental: Human NK cells were magnetically sorted from normal donor PBMCs using negative selection. NK cells were seeded in a 96-well U-bottom plate at a density of 400,000 cells/well. NK cells were stimulated with mono(methoxyPEG-N-butanamide)40 kD interleukin-15 (Compound 1) (300 ng/mL) (+) or left unstimulated (−) in complete RPMI-1640 media supplemented with 10% fetal bovine serum (FBS) and 1% antibiotic/antimycotic overnight at 37° C. in 5% CO2.
The colonic human HCT-116 cells (ATCC #CCL-247) were cultured McCoy 5A media (ATCC+30-2007) supplemented with 10% fetal bovine serum (FBS) and 1% antibiotic/antimycotic at 37° C. in 5% CO2. HCT-116 cells were subcultured by incubating in 0.25% Trypsin-0.53 mM EDTA for 5 min at 37° C., washed in sterile PBS, resuspended in culture media, counted, and co-cultured with the NK cells using an effector:target (E:T) of 10:1. […] Following incubation, cells were washed in flow staining buffer, Fc-blocked for 15 min at 4° C., and surface-stained (EpCAM, CD45, CD56, CD3-fluorescently conjugated antibodies) for 20 min at 4° C. in the dark. The cells were washed in PBS and incubated in 7-aminoactinomycin (7-AAD) viability stain for 30 minutes at 4° C. before acquiring for flow cytometric analysis using a Fortessa (BD). The percentage of 7-AAD+CD45-EpCAM+ target cells from total cell population is the percentage for dead tumor cells.

[3] = system: NK cells; assay: CD16 surface expression on bone marrow NK cells of Daudi lymphoma bearing mice (Example 10); type: in vivo; conditions: bone marrow day 24
Experimental: as §1, with “were treated with (i) mono(mPEG-N-butanamide)40” for “were administered mono(methoxyPEG-N-butanamide)40”, “1) administered” for “1)”, “or (ii)” for “or administered”
Three days following the second Conjugate 1 administration (day 24 after Daudi inoculation), bone marrow was collected and the NK cell fraction was measured by flow cytometry in total bone marrow. The fraction of NK cells expressing the cell surface CD16 receptor that is known to mediate antibody dependent cellular cytotoxicity mechanism in the presence of tumor targeting antibodies, and the change in CD16 expression per cell basis on NK cells are shown in FIGS. 13A and 13B, respectively.

[4] = system: Daudi B cell lymphoma; assay: Survival in Daudi B cell lymphoma xenograft model, combination with rituximab (Example 1); type: in vivo, mice; conditions: after about 35 days; agonist 0.3 mg/kg, days 14 and 17
Experimental: At day 0, SCID mice were intravenously injected with 1×10^7 Daudi cells. The mice were divided into four groups. On days 14 and 17 post-Daudi cell injection, the groups were treated by injection as follows: Group 1: isotype control antibody, Group 2: 40 mg/kg IP rituximab, Group 3: 0.3 mg/kg mono(methoxyPEG-N-butanamide)40 kD interleukin-15 (a long-acting IL-15 receptor agonist), Group 4: 40 mg/kg IP rituximab and 0.3 mg/kg SC mono(methoxyPEG-N-butanamide)40 kD interleukin-15 (combination).
The survival rate was determined by measuring the onset of hind limb paralysis as a surrogate parameter.

[5] = system: CD56+ human NK cells; assay: Functional activation of human NK cells in PBMCs, CD69 and CD107a MFI by flow cytometry (Example 6); type: cell-based; conditions: overnight; Conjugate 1 1 μg/ml; plate coated with hIgG 0.1 mg/ml
Experimental: Functional activation of human NK cells within a human peripheral blood mononuclear cells (PBMCs) preparation was induced in vitro. PBMCs from two donors were incubated overnight in the presence of (i) mono(methoxyPEG-N-butanamide)40 kD interleukin-15 (Conjugate 1) at a concentration of 1 μg/ml; (ii) on cell culture plastic that had been prior coated overnight with human total immunoglobulin G (hIgG) solution at a concentration of 0.1 mg/ml (iii) on cell culture plastic that had been prior coated overnight with human total immunoglobulin G (hIgG) solution at a concentration of 0.1 mg/ml and in the presence of Conjugate 1 at a concentration of 1 μg/ml; or (iv) on regular cell culture plastic.
After the incubation period, NK cell activation was measured with flow cytometry by measuring the increase of median fluorescence intensity (MFI) signal of CD69 (FIG. 9A) and CD107a (FIG. 9B) detecting antibodies on the surface of CD56+ human NK cells within the PBMCs. Functional activation of NK cells was assessed by calculating the fold-change in MFI when comparing control condition where the cells were exposed to neither hIgG nor Conjugate 1. […] Secreted granzyme B concentration also indicative of NK cell activation in the culture media at the end of the experiment was measured by ELISA (FIG. 9C).

[6] = system: H1975 lung carcinoma cells; assay: Tumor growth in H1975 lung tumor model (Example 17); type: in vivo, mice; conditions: day 27 after treatment initiation; cetuximab 0.25 mg/kg IP x3; Compound 1 0.3 mg/kg IV x3
Experimental: Delay in loss of tumor growth control was evaluated on day 27 after treatment initiation.

[7] = Conjugate 1 0.3 mg/kg, antibody 0.5 mg/kg

Substance: mono(methoxyPEG-N-butanamide)40 kD interleukin-15 [Conjugate 1]
- % NK cells expressing NKG2A (mean, n = 6) [1]: 73.70%
- % NK cells expressing NKG2D (mean, n = 6) [1]: 2.157%
- ADCC, % 7-AAD+CD45-EpCAM+ target cells [2]: enhance ADCC of cetuximab-coated human solid tumor cells
- Fraction of NK cell expressing cell surface CD16 (mean value) ([3]; Conjugate 1 0.3 mg/kg SC days 14 and 21, antibody 0.5 mg/kg IP day 14): 96%
- CD16 mean fluorescence intensity (MFI mean value) [3, 7]: 853
- Relative CD16 expression compared to untreated condition [3, 7]: 1.8x increase
- survival [4]: 0%
- CD69 MFI fold-change relative to no stimulation control [5]: 1.8 fold
- CD107a MFI fold-change relative to no stimulation control [5]: 2.6 fold
- tumor growth control [6]: no tumor growth inhibition
